Test results: patent US20230119539A1, “TRACELESS LINKERS AND PROTEIN-CONJUGATES THEREOF” (Regeneron Pharmaceuticals, Inc., priority 2019, published 2023)

Key:
[1] = pH stability of quenched linker-payloads in buffers (LCMS); format: physicochemical
Experimental: To a solution of compound (payloads or quenched-linker-payloads) in DMSO (0.2-1.0 mg/mL) was added corresponding PBS buffer (V(buffer)/V(DMSO)=5) to give test samples (pH 3, 4, 5, 6, 7.4, and 8.5, or other special pH). The test samples were incubated at RT for at least 3 days and monitored by LCMS (i.e., at 1 hr, 2 hr, 4 hr, 8 hr, and 1 day, 2 day, 3 day, 4 day, 5 day, 6 day, 7 day, 8 day, 9 day, and 21 day time points). Initial concentrations of the samples were 0.2 mg/mL (DMSO/buffer, v/v=1/5). […] The payloads and quenched linker-payloads were mostly stable at pH >5.0, 6.0, 7.4 and 8.5 after 3 days. In more acidic conditions, such as pH 1.0, the payloads or linker-payloads were easily cleaved to release D*-OH.

[2] = Metabolic stability with human liver microsomes; format: in vitro ADME; conditions: Mean
Experimental: The metabolic stability of payload PIII-1 incubated with human liver microsomes was evaluated and the results were shown in the Table 7e below.

[3] = buffer, 1 day, 0.2 mg/mL, pH 7.4
[4] = buffer, 2 day, 0.2 mg/mL, pH 7.4
[5] = buffer, 7 day, 0.2 mg/mL, pH 7.4

SMILES	LP: percentage of linker-payloads remaining ([1]; pH 4.0, day 1) [%]	P: percentage of budesonide released from the linker-payloads ([1]; pH 4.0, day 1) [%]	LP: percentage of linker-payloads remaining ([1]; pH 4.0, day 2) [%]	P: percentage of budesonide released from the linker-payloads ([1]; pH 4.0, day 2) [%]	LP: percentage of linker-payloads remaining ([1]; pH 4.0, day 7) [%]	P: percentage of budesonide released from the linker-payloads ([1]; pH 4.0, day 7) [%]	LP: percentage of linker-payloads remaining ([1]; pH 5.0, day 1) [%]	P: percentage of budesonide released from the linker-payloads ([1]; pH 5.0, day 1) [%]	LP: percentage of linker-payloads remaining ([1]; pH 5.0, day 2) [%]	P: percentage of budesonide released from the linker-payloads ([1]; pH 5.0, day 2) [%]	LP: percentage of linker-payloads remaining ([1]; pH 5.0, day 7) [%]	P: percentage of budesonide released from the linker-payloads ([1]; pH 5.0, day 7) [%]	LP: percentage of linker-payloads remaining ([1]; pH 7.4, day 1) [%]	P: percentage of budesonide released from the linker-payloads ([1]; pH 7.4, day 1) [%]	LP: percentage of linker-payloads remaining ([1]; pH 7.4, day 2) [%]	P: percentage of budesonide released from the linker-payloads ([1]; pH 7.4, day 2) [%]	P: percentage of budesonide released from the linker-payloads ([1]; pH 7.4, day 7) [%]	P: percentage of budesonide released from the linker-payloads ([1]; pH 6.0, day 1) [%]	P: percentage of budesonide released from the linker-payloads ([1]; pH 6.0, day 2) [%]	P: percentage of budesonide released from the linker-payloads ([1]; pH 6.0, day 7) [%]	other results
CCCC1OC2CC3C4CCC5=CC(=O)C=CC5(C)C4C(O)CC3(C)C2(C(=O)COCN2CCCC(NC(=O)OCc3ccc(NC(=O)C(CCCNC(N)=O)NC(=O)C(NC(=O)CCOCCOCCOCCOCCNC(=O)CCC(=O)N4Cc5ccccc5-c5c(nnn5CCOCCOCCOCCOCCC(=O)NCCS(=O)(=O)O)-c5ccccc54)C(C)C)cc3)C2=O)O1 (mixture of isomers) [Q1L1-PII-12]	100	0	100	0	100	0	100	0	100	0	100	0	100	0	100	0	0				LP: percentage of linker-payloads remaining ([1]; pH 7.4, day 7): 100%
CCCC1OC2CC3C4CCC5=CC(=O)C=CC5(C)C4C(O)CC3(C)C2(C(=O)COC2CCN2C(=O)CNC(=O)CCOCCOCCOCCOCCNC(=O)CCC(=O)N2Cc3ccccc3-c3c(nnn3CCOCCOCCOCCOCCC(=O)NCCS(=O)(=O)O)-c3ccccc32)O1 (mixture of isomers) [Q1L6-PII-13]	100	0	100	0	100	0	100	0	100	0	100	0	100	0	100	0	0	0	0	0	LP: percentage of linker-payloads remaining ([1]; pH 6.0, day 1): 100%; LP: percentage of linker-payloads remaining ([1]; pH 6.0, day 2): 100%; LP: percentage of linker-payloads remaining ([1]; pH 6.0, day 7): 100%; LP: percentage of linker-payloads remaining ([1]; pH 7.4, day 7): 100%
CCCC1O[C@@H]2C[C@H]3[C@@H]4C[C@H](F)C5=CC(=O)C=C[C@]5(C)[C@@]4(F)[C@@H](O)C[C@]3(C)[C@]2(C(=O)CO)O1 (some centres unmarked) [III from P11I-1]																					Area ratio of III formed from PIII-1 ([2]; 0 min): BQL; Area ratio of III formed from PIII-1 ([2]; 5 min): 0.001; Area ratio of III formed from PIII-1 ([2]; 15 min): 0.002; Area ratio of III formed from PIII-1 ([2]; 30 min): 0.001; Area ratio of III formed from PIII-1 ([2]; 45 min): 0.001
CCCC1O[C@@H]2C[C@H]3[C@@H]4CCC5=CC(=O)C=C[C@]5(C)[C@H]4[C@@H](O)C[C@]3(C)[C@]2(C(=O)COCNC(=O)CNC(=O)OCc2ccc(O[C@@H]3O[C@H](CO)[C@@H](O)[C@H](O)[C@H]3O)c(C(=O)NCCNC(=O)COC3C#CCCCCC3)c2)O1 (some centres unmarked) [L18-PII-1, COT-EDA-(GLC)PAB-G-NHCH2-Bud]		0		0		0		0		0		0		0		0	0	0	0	0	LP: percentage of linker-payloads remaining ([1]; buffer, 1 day, 0.2 mg/mL, pH 4): 100%; LP: percentage of linker-payloads remaining ([1]; buffer, 1 day, 0.2 mg/mL, pH 5): 100%; LP: percentage of linker-payloads remaining ([1]; buffer, 1 day, 0.2 mg/mL, pH 6): 100%; LP: percentage of linker-payloads remaining [1, 3]: 100%; LP: percentage of linker-payloads remaining ([1]; buffer, 2 day, 0.2 mg/mL, pH 4): 100%; LP: percentage of linker-payloads remaining ([1]; buffer, 2 day, 0.2 mg/mL, pH 5): 100%; LP: percentage of linker-payloads remaining ([1]; buffer, 2 day, 0.2 mg/mL, pH 6): 100%; LP: percentage of linker-payloads remaining [1, 4]: 100%; LP: percentage of linker-payloads remaining ([1]; buffer, 7 day, 0.2 mg/mL, pH 4): 100%; LP: percentage of linker-payloads remaining ([1]; buffer, 7 day, 0.2 mg/mL, pH 5): 100%; LP: percentage of linker-payloads remaining ([1]; buffer, 7 day, 0.2 mg/mL, pH 6): 100%; LP: percentage of linker-payloads remaining [1, 5]: 100%
CCCC1O[C@@H]2C[C@H]3[C@@H]4CCC5=CC(=O)C=C[C@]5(C)[C@H]4[C@@H](O)C[C@]3(C)[C@]2(C(=O)COC2CCCN2C(=O)CNC(=O)CCOCCOCCOCCOCCNC(=O)CCC(=O)N2Cc3ccccc3-c3c(nnn3CCOCCOCCOCCOCCC(=O)NCCS(=O)(=O)O)-c3ccccc32)O1 (some centres unmarked) [Q1L6-PII-9]		69		89		99		5		10		28		0		0	0	0	0	8	LP: percentage of linker-payloads remaining ([1]; buffer, 1 day, 0.2 mg/mL, pH 4): 30%; LP: percentage of linker-payloads remaining ([1]; buffer, 1 day, 0.2 mg/mL, pH 6): 100%; LP: percentage of linker-payloads remaining [1, 3]: 100%; LP: percentage of linker-payloads remaining ([1]; buffer, 2 day, 0.2 mg/mL, pH 4): 10%; LP: percentage of linker-payloads remaining ([1]; buffer, 2 day, 0.2 mg/mL, pH 6): 100%; LP: percentage of linker-payloads remaining [1, 4]: 100%; LP: percentage of linker-payloads remaining ([1]; buffer, 7 day, 0.2 mg/mL, pH 4): 0%; LP: percentage of linker-payloads remaining ([1]; buffer, 7 day, 0.2 mg/mL, pH 6): 92%; LP: percentage of linker-payloads remaining [1, 5]: 100%
